Measured values as given in publication PMC7060200, “Selective Binding of HSC70 and its Co-Chaperones to Structural Hotspots on CFTR” (Scientific Reports, 2020).
Ends that are not written are not given here.

Legend:
[1] = molecular target: T1, HSC70 (Homo sapiens, UniProt P11142); experiment: Fluorescent peptide binding, HSC70; details: 0.5 μM FAM-1092-S, buffer G, 45 min, ex 492 nm / em 520 nm, one site total binding fit, n ≥ 8
T1 construct: made in house
Description: (§1) The CFTR peptide library was designed as 15-mers with 10-residue overlaps covering the cytosolic sequences as in Fig. 1a and Supplemental Table S1. Synthetic peptides (Mimotopes, PepSet purity) contained an N-terminal biotin followed by linker sequence GSGS and the 15-mer sequence. Soluble peptides (Lifetein) were synthesized unmodified at >85% purity, sequences in Supplemental Table S1 and S2. Fluorescent peptide 1092-S was fused to the linker sequence SG and an N-terminal 6-carboxyfluorescein (FAM) label. Peptides were reconstituted in DMSO or water.
(§2) 0.5 μM FAM-1092-S was incubated with chaperones at the indicated concentrations for 45 min. HSC70 was incubated in buffer G, DJA1 and DJA2 were incubated in buffer H. The fluorescence signal for each condition was measured at 492 nm wavelength excitation, 520 nm wavelength emission, and 5 nm slit width, using a Horiba FluoroMax spectrofluorometer. Data were collected with the FluorEssence software (Horiba). Dissociation constants (Kd) were determined by nonlinear regression fit of the averaged data to a one site – total binding model, using GraphPad Prism 8. The 95% confidence intervals and R^2 correlation coefficients are reported (Supplemental Table S3).

[2] = molecular target: T1, HSC70; experiment: ELISA binding of HSC70 to immobilized CFTR NBD1 and competition by soluble peptides; details: 1 μM HSC70, with ATP, soluble peptide, Fig. 4a; n = 5
Experimental: (§3) HSC70, DJA1 and DJA2 were purified as His-tagged proteins, as described. HSC70 was also amplified by PCR with an N-terminal FLAG tag, inserted into pPROEXHTa (Invitrogen) and purified as described. HSC70 was stored in 100 mM KOAc, 20 mM HEPES-KOH pH 7.5, 5 mM MgOAC2 (buffer G), DJA1 and DJA2 in 500 mM NaCl, 20 mM HEPES-KOH pH 7.5, 5 mM MgOAC2 (buffer H). Avi-tagged CFTR NBD1 was purified as described.
For NBD1 binding, 100 nM of strep-tagged NBD1 in 100 µl of 150 mM NaCl, 50 mM Na2HPO4 pH 7.5, 1 mM ATP, and 40 µM DTT (buffer N), was bound to streptavidin plates for 1 hour at 4 °C with agitation. Plates were washed with PBST and incubated in buffer N at 30 °C in a water bath for 5 min. Then, plates were blocked in PBST containing 0.5% BSA, followed by the addition of HSC70 binding reactions, and detection as above.

[3] = molecular target: T2, DJA1 (Homo sapiens, UniProt P31689); experiment: Fluorescent peptide binding, DJA1; details: 0.5 μM FAM-1092-S, buffer H, 45 min, ex 492 nm / em 520 nm, one site total binding fit, n ≥ 8
T2 construct: made in house
Description: as §1, §2

[4] = molecular target: T3, DJA2 (Homo sapiens, UniProt O60884); experiment: Competition ELISA: soluble peptide vs DJA2 binding to immobilized 1097-L
T3 construct: made in house
Experimental: as §3
(§4) The CFTR peptide library was designed as 15-mers with 10-residue overlaps covering the cytosolic sequences as in Fig. 1a and Supplemental Table S1. Synthetic peptides (Mimotopes, PepSet purity) contained an N-terminal biotin followed by linker sequence GSGS and the 15-mer sequence. […] Peptides were reconstituted in DMSO or water.
(§5) For peptide binding, streptavidin-coated black 96-well plates (Nunc Maxisorp, ThermoFisher) were pre-rinsed with PBS containing 0.05% Tween-20 (PBST), and 5 µM biotinylated peptides in 100 µl PBS were bound overnnight at 4 °C with agitation. Plates were washed with PBST and blocked with PBST containing 0.5% bovine serum albumin (BSA) for 1 h. After removal of blocking solution, 100 µl reactions containing chaperones at indicated concentrations were bound for 45 min at room temperature with agitation. HSC70 reactions were in buffer G containing 1 mM ATP, DJA1 and DJA2 reactions were in buffer H. For competition assays, chaperones and peptides were mixed at indicated concentrations immediately before the reactions were added to the plates. For detections, the plates were washed in PBST and 5 μM His-Probe-HRP conjugate (ThermoFisher) in 100 μL PBST added for 15 min with agitation. After washing in PBST, plates were developed using Amplex Red (ThermoFisher) according to manufacturer’s instructions, in a fluorescence plate reader (Tecan M1000).
(§6) Affinities were determined separately from binding curves and from competition curves. Data from binding of chaperones to immobilized peptides (Fig. 2a,b and Supplemental Fig. S2a–c) were fit to the equation 1/(1 − i) = (C/i)/Kd^B − b, where i is the relative saturation, C is the chaperone concentration (1 μM), Kd^B is the apparent dissociation constant from the binding data. In the plot of 1/(1 − i) against (C/i), the slope is 1/Kd^B, and −b is the intercept. […] In the plot of bi + (C/Kd^B)/i over D, the slope is 1/Kd^C, and e is the intercept. The amount of chaperone bound in the absence of competitor was set as i = 1.
(§7) Established statistical methods[71]–[73] were used to analyze the data for chaperone binding to the peptide library. First, biological and statistical outliers were identified with the Tukey method in two rounds, for biological and then statistical outliers. […] Binding data were represented as multiples of the standard deviations from the normal means. Binding in the presence of competitor peptides were shown as a fraction of binding in the absence of competitor, or the fraction competed calculated as 1 – fraction bound. Values were compared using a two-tailed unpaired Student’s t-test assuming unequal variance.

[5] = molecular target: T2, DJA1; experiment: Competition ELISA: soluble peptide vs DJA1 binding to immobilized 1097-L
Experimental: as §3, §4, §5, §6, §7

[6] = molecular target: T1, HSC70; experiment: Competition ELISA: soluble peptide vs HSC70 binding to immobilized 1097-L
Experimental: as §3, §4, §5, §6, §7

[7] = molecular target: T3, DJA2; experiment: Fluorescent peptide binding, DJA2; details: 0.5 μM FAM-1092-S, buffer H, 45 min, ex 492 nm / em 520 nm, one site total binding fit, n ≥ 8
Description: as §1, §2

[8] = test system: HSC70 and DJA2; experiment: Refolding of guanidine denatured luciferase by HSC70 and DJA2; type: biochemical; details: 4 μM each HSC70 and DJA2, 100 nM luciferase, 100 μM peptide (25-fold excess), 60 min, % of control without peptide; n = 3
Experimental: Refolding of guanidine denatured luciferase with HSC70 and DJA2 was as described. […] To monitor refolding, luciferase activity was measured in a luminometer (Berthold Sirius) with the luciferase assay kit (Promega). For co-IPs, 20 μL reaction aliquots were stopped by dilution at 4 °C to 500 μL with buffer containing 0.1% Triton X-100, 0.2% BSA and 0.04 mg/mL apyrase (Sigma). Reactions were incubated with FLAG-M2 magnetic beads (Sigma) for 1 h at 4 °C with agitation, then beads were isolated and washed with buffer G containing 0.1% Triton X-100, and eluted with 40 μL of 1 μg/mL FLAG peptide in the same buffer. Samples were analyzed on Western blots detected with antibodies against luciferase (Sigma, L2164) and the FLAG-M2 tag (Sigma, F1804).

[9] = molecular target: T3, DJA2; experiment: ELISA binding of DJA2 to immobilized biotinylated CFTR peptides; details: 2 μM DJA2, absence of ATP, immobilized 15-mer; n ≥ 3
Experimental: as §3, §4, §5, §6, §7

[10] = molecular target: T1, HSC70; experiment: ELISA binding of HSC70 to immobilized biotinylated CFTR peptides
Experimental: as §3, §4, §5, §6, §7

[11] = test system: Flag-tagged HSC70; experiment: Co-immunoprecipitation of luciferase with Flag-tagged HSC70 during refolding; type: biochemical; details: refolding reactions stopped at 0 or 15 min, FLAG IP, Western blot, Fig. 4d
Experimental: as §3
Refolding of guanidine denatured luciferase with HSC70 and DJA2 was as described. 100 µl reactions contained 4 μM each of HSC70 and DJA2, 2 mM ATP and […] in buffer G, with the indicated concentrations of peptides. To monitor refolding, luciferase activity was measured in a luminometer (Berthold Sirius) with the luciferase assay kit (Promega). For co-IPs, 20 μL reaction aliquots were stopped by dilution at 4 °C to 500 μL with buffer containing 0.1% Triton X-100, 0.2% BSA and 0.04 mg/mL apyrase (Sigma). Reactions were incubated with FLAG-M2 magnetic beads (Sigma) for 1 h at 4 °C with agitation, then beads were isolated and washed with buffer G containing 0.1% Triton X-100, and eluted with 40 μL of 1 μg/mL FLAG peptide in the same buffer. Samples were analyzed on Western blots detected with antibodies against luciferase (Sigma, L2164) and the FLAG-M2 tag (Sigma, F1804).

[12] = molecular target: T2, DJA1; experiment: ELISA binding of DJA1 to immobilized biotinylated CFTR peptides; details: 2 μM DJA1, absence of ATP, immobilized 15-mer; n ≥ 3
Experimental: as §3, §4, §5, §6, §7

T3 sequence (O60884 whole entry): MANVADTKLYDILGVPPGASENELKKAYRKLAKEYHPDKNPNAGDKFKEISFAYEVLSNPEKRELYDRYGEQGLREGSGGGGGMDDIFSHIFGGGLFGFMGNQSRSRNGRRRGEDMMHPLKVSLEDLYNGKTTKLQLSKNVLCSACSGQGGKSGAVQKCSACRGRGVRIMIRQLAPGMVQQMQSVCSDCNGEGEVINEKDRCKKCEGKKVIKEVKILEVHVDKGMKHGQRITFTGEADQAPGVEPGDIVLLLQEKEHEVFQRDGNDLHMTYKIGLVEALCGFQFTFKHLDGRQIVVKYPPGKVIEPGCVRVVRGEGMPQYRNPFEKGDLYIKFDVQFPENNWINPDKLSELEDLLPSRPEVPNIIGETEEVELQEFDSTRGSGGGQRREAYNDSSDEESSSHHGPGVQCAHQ
T1 sequence (P11142 whole entry): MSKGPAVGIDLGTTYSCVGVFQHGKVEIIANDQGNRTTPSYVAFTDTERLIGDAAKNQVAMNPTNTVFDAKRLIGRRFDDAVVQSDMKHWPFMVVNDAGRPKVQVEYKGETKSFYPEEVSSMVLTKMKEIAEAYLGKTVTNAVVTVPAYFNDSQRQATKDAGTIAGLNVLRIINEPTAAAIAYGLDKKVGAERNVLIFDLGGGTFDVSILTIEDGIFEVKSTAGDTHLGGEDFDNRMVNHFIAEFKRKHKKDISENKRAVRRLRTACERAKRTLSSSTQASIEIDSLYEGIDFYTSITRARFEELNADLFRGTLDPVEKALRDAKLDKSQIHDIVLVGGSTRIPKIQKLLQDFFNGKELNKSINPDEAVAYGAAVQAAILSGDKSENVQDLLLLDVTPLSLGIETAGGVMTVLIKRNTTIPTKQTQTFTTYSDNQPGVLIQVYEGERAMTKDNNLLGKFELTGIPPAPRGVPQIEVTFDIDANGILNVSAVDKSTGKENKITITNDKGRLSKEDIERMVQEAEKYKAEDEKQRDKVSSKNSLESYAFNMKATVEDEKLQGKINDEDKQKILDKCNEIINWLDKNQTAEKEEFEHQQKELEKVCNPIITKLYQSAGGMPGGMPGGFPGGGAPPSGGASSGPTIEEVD

Substance	Kd from fluorescence binding, HSC70 [1]	Kd ([1]; read-out: Kd from fluorescence binding, HSC70)	competition of HSC70 binding to immobilized NBD1 (in words) [2]	Kd from fluorescence binding, DJA1 [3]	Kd ([3]; read-out: Kd from fluorescence binding, DJA1)	Kd [4]	competition of DJA2 binding to immobilized 1097-L (in words) ([4]; 1 μM DJA2, soluble peptide up to 100 μM)	DJA1 binding site by competition screen (in words) ([5]; 1 μM DJA1, 100 μM soluble peptide, Fig. 3c/5, cutoff twice SD of 733-L, n ≥ 4)	competition of DJA1 binding to immobilized 1097-L (in words) ([5]; 1 μM DJA1, soluble peptide up to 100 μM)	Kd ([5]; read-out: Kd from competition curves, DJA1)	competition of HSC70 binding to immobilized 1097-L (in words) ([6]; 1 μM HSC70, soluble peptide up to 100 μM)	Kd ([6]; read-out: Kd from competition curves, HSC70)	Kd from fluorescence binding, DJA2 [7]	Kd ([7]; read-out: Kd from fluorescence binding, DJA2)	effect on luciferase refolding (in words) [8]	binding in peptide library screen, DJA2 (in words) [9]	binding in peptide library screen, HSC70 (in words) ([10]; 2 μM HSC70, with ATP, immobilized 15-mer, n ≥ 3)	titration binding / saturation, HSC70 (in words) ([10]; HSC70 titrated to 1.5 μM on immobilized peptide, Fig. 2a, S2a, n ≥ 6)	luciferase bound to HSC70 in presence of peptide (in words) [11]	binding in peptide library screen, DJA1 (in words) [12]
NWFLYLSTL [Peptide 1092-S]	single micromolar range	6.17 µM	effective competitors	single micromolar range	3.97 µM	2.63 µM	competed all three chaperones	one of the few sites also bound by DJA1	competed all three chaperones	5.47 µM	competed all three chaperones	1.26 µM	single micromolar range	8.46 µM	inhibited refolding					
733-L: R 15-mer 726-740, negative control (EDSDEPLERRLSLVP; UniProt P13569 726-740, looked up, fragment) [Peptide 733-L]			did not												no effect	low binding	low binding	low	luciferase was substantially bound	low binding
